{
  "source": "paper PMC6155746",
  "about": "(Molecules : A Journal of Synthetic Chemistry and Natural …, 2017)",
  "key": {"[1]": {"assay": "Permeability assay, everted rat gut model", "format": "in vitro ADME, Wistar rats", "conditions": "for Papp at 120 min, 100 μM: male, Wistar, rat, everted rat gut, 37 °C, A-B", "experimental": "Male Wistar rats weighing 200–250 g were used in this research. Everted intestinal sacs were prepared by quickly removing the small intestine from starved rats killed under ether anesthesia. All experiments were carried out after pre-incubation at 37 ± 0.5 °C, with the duodenum and jejunum then excised, flushed-through several times with saline solution at room temperature, and placed immediately into simulated intestinal fluid (SIF). The intestine was gently everted over a steel rod and filled with fresh SIF. The sacs were preincubated in oxygenated buffer solution for 5 min and then placed in 100 mL of oxygenated SIF solution containing 0.0001 M (100 μM) of Compound 1 at 37 °C. Oxygen was bubbled with a pump to maintain viable tissue.\nThe everted intestinal sac was filled with 1.5 mL of SIF solution, while a test compound solution (0.0001 M) remained external to the everted sac. […] 300 μL samples were collected from inside the sac with a metallic cannula at 5, 10, 15, 30, 45, 60, 90, and 120 min (apical-basolateral transport A-B), after which a medium replacement was made. Both an initial and final sample of the outside solution were analyzed by HPLC.\nThe apparent intestinal permeability (Papp) was calculated according to Equation (2): (2) Papp=V/(A∗Co)dC/dt where Papp = Apparent Permeability (cm/s), V = Intestinal Volume (mL), A = Surface Area (cm^2), dC/dt = Concentration Gradient, and, Co = Initial Concentration (μg/mL)."}, "[2]": {"assay": "Apparent partition coefficient (octanol-water log D, shake-flask)", "format": "physicochemical", "conditions": "n-octanol/phosphate buffer", "experimental": "The octanol-water distribution coefficient was determined using the shake-flask method. The two phases were mutually saturated by shaking for 15 min. Phosphate buffers were used as the aqueous phase for the pH range 1.2 to 13. 5 mL portions of different buffer solutions (pH 1.2 to 13) containing 100 μg/mL of Compound 1 were mixed with 2.5 mL of n-Octanol. The mixture was shaken for 30 min, centrifuged at 8000× g for 10 min, after which the aqueous and organic phases were separated. Aqueous samples were analyzed at 222 nm using a validated spectrophotometric method (5–200 μg·mL^−1). The distribution coefficient (log D) was calculated according to Equation (1) for each pH value: (1) Log D=log[Compound]org/[Compound ]aq where [Compound]org is the drug concentration in the organic phase (determined by mass balance) and [Compound]aq is the drug concentration in the aqueous phase for each buffer solution. Every experiment was evaluated in triplicate."}, "plasma glucose levels": {"system": "plasma glucose levels", "set-up": "method as in PMID 23597793, PMID 23453304", "conditions": "non-insulin dependent diabetes mellitus rat model, 7 h post-administration, Compound 1 at 50 mg/kg single dose; cited from earlier work"}, "[3]": {"assay": "pKa determination via potentiometric analysis", "format": "physicochemical", "conditions": "methanol/aqueous solution of ionic strength 0.02 M; Mean (±S.D.), potentiometric titration, triplicate; read-out: pKa1", "experimental": "The determination of pKa was undertaken as described by Babic A. et al.. Compound 1 was prepared by weighing 0.001 equivalents, which were dissolved in the minimum volume of methanol, to which aqueous solution with an ionic strength of 0.02 M was added to obtain a final concentration for Compound 1 of 0.006 M. It was titrated with NaOH 0.01 N, which had been previously evaluated with an ionic strength of 0.02 M using Logger Pro 3.5.0 software (Vernier Software & Technology, Beaverton, OR, USA). The study was conducted in triplicate, determining the final points using the criteria from the first and second derivative test."}, "[4]": {"system": "11β-hydroxysteroid dehydrogenase type 1 (11β-HSD1)", "set-up": "method as in PMID 23597793", "conditions": "at 10 μM, HEK293 cells; cited from earlier work"}, "[5]": {"assay": "Bioavailability / pharmacokinetic study, oral and intravenous administration", "format": "in vivo, Wistar rats", "set-up": "average clearance (CL): unit not given here", "conditions": "for half-life: read-out: T1/2el (converted)", "experimental": "Male Wistar rats weighing 250–300 g were used for pharmacokinetic evaluation. Animals were individually identified by tail markings and acclimated to the study environment for seven days prior to the administration of the dose. Animals were kept on a 12 h light/dark cycle except when this was interrupted for study procedures. Animals were kept at average room temperature, which was regulated in the range of 18 to 29 °C. The animals were fasted prior to dose administration, and had access to water ad libitum.\nRats were anesthetized with ether and cannulated via the caudal vein using polyethylene tubing with an internal diameter of 0.023 inches, and an outer diameter of 0.038 inches (Becton Dickinson Clay Adams).\nCompound 1 was prepared with Cremophore (10%) in physiologic saline solution and administered orally in a 50 mg/kg dose, and via intravenous bolus (50 mg/kg). Study was conducted in quintuplicate.\nAfter dosing, serial blood samples were collected (0.2 mL) 0, 0.083, 0.16, 0.25, 0.33, 0.50, 0.75, 1.0, 1.5, 2.0, 3.0, 4.0, 6.0, and 8 h after both oral and intravenous administration using heparinized (20 UI) tubes, and were centrifuged at 5000× g for 10 min, with the plasma harvested and analyzed by HPLC using the previously validated method.\nThe pharmacokinetic parameters of Compound 1 were obtained via non-compartmental analysis using PK software (PKSolver). The STATA statistical program, version 12, was used for the comparison of the following: the pharmacokinetic parameters obtained via both administration pathways (Cmax and Tmax); the elimination rate constant (kel); the biological half-life; the area under the curve (AUC0–t); the area under the curve from zero to infinity (AUC0–∞); volume of distribution (Vd); clearance (Cl); and, absolute bioavailability (F)."}, "rat": {"system": "rat", "conditions": "in vivo, po; cited from earlier work"}, "[6]": {"conditions": "reported in the rat, oral; cited from earlier work"}, "[7]": {"conditions": "duodenum, read-out: Papp Duodenum"}, "[8]": {"conditions": "jejunum, read-out: Papp Jejunum"}, "[9]": {"conditions": "Compound 1, intravenous, 50 mg/kg, Wistar rat, mean"}, "[10]": {"conditions": "Compound 1, oral, 50 mg/kg, Wistar rat, mean"}, "[11]": {"conditions": "male, plasma, Compound 1, intravenous, 50 mg/kg, Wistar rat, mean"}, "[12]": {"conditions": "male, plasma, Compound 1, oral, 50 mg/kg, Wistar rat, mean"}},
  "note": "Where “and” joins values, the source holds several entries; their conditions need not be identical. Identical values can stand only once. Like-named read-outs stand apart in the source and are kept apart here.",
  "data": [
    {"smiles": "CC1(C)S[C@@H]2[C@H](NC(=O)[C@H](N)c3ccc(O)cc3)C(=O)N2[C@H]1C(=O)O", "note": "[Amoxicillin, amoxicillin, reference compound]", "values": [
      {"measurement": "Papp at 120 min, 100 μM", "setting": "[1]; [7]", "value": 8.52, "unit": "×10⁻⁶ cm/s"},
      {"measurement": "Papp at 120 min, 100 μM", "setting": "[1]; [8]", "value": 10, "unit": "×10⁻⁶ cm/s"}
    ]},
    {"smiles": "CC(C)(Oc1ccc(Cl)cc1)C(=O)Nc1nnn[nH]1", "note": "[Compound 1, 2-(4-chlorophenoxy)-2-methyl-N-(1H-tetrazol-5-yl) propanamide]", "values": [
      {"measurement": "log D", "setting": "[2]; pH 1 to 5", "value": "positive"},
      {"measurement": "Log D", "setting": "[2]; pH 7", "value": "below zero"},
      {"measurement": "reduction in glucose levels in the plasma", "setting": "plasma glucose levels", "value": "up to 77%"},
      {"measurement": "pKa", "setting": "[3]", "value": 4.43},
      {"measurement": "inhibition of 11β-HSD1", "setting": "[4]", "value": 51.17, "unit": "%"},
      {"measurement": "average ABC0–α", "setting": "[5]; Compound 1, intravenous", "value": 38800, "unit": "ng·h/mL"},
      {"measurement": "ABC0–t", "setting": "[5]; [9]", "value": 30.5, "unit": "μg/mL·h"},
      {"measurement": "ABC0–α", "setting": "[5]; [9]", "value": 38.8, "unit": "μg/mL·h"},
      {"measurement": "Cl", "setting": "[5]; [9]", "value": 484.5, "unit": "mL/h"},
      {"measurement": "average ABC0–α", "setting": "[5]; Compound 1, oral", "value": 2580, "unit": "ng·h/mL"},
      {"measurement": "average clearance (CL)", "setting": "[5]; Compound 1, oral", "value": 751.2},
      {"measurement": "ABC0–t", "setting": "[5]; [10]", "value": 2.37, "unit": "μg/mL·h"},
      {"measurement": "ABC0–α", "setting": "[5]; [10]", "value": 2.58, "unit": "μg/mL·h"},
      {"measurement": "Cl", "setting": "[5]; [10]", "value": 751.2, "unit": "mL/h"},
      {"measurement": "Ka", "setting": "[5]; [10]", "value": 3.05, "unit": "h⁻¹"},
      {"measurement": "clearance", "setting": "[5]; male, Wistar, rat, plasma, 50 mg/kg, Compound 1, intravenous, read-out: average clearance (CL) (converted)", "value": 8.07, "unit": "mL/min"},
      {"measurement": "half-life", "setting": "[5]; male, Wistar, rat, plasma, iv, 50 mg/kg, Compound 1, intravenous, 50 mg/kg, Wistar rat, mean", "value": 42.6, "unit": "min"},
      {"measurement": "half-life", "setting": "[5]; male, Wistar, rat, plasma, po, 50 mg/kg, Compound 1, oral, 50 mg/kg, Wistar rat, mean", "value": "~22.8", "unit": "min"},
      {"measurement": "Vd", "setting": "[5]; [11]", "value": "0.4 L and 1.3 L/kg"},
      {"measurement": "k el", "setting": "[5]; [11]", "value": 0.000336, "unit": "s⁻¹"},
      {"measurement": "bioavailability", "setting": "[5]; male, plasma, Compound 1, oral vs intravenous, 50 mg/kg, Wistar rat, mean", "value": 10.4, "unit": "%"},
      {"measurement": "Cmax", "setting": "[5]; [12]", "value": 3570, "unit": "ng/mL"},
      {"measurement": "Tmax", "setting": "[5]; [12]", "value": 19.8, "unit": "min"},
      {"measurement": "k el", "setting": "[5]; [12]", "value": 0.000503, "unit": "s⁻¹"},
      {"measurement": "permeability classification", "setting": "[1]; compared to the standards naproxen and amoxicillin", "value": "low permeability"},
      {"measurement": "Papp at 120 min, 100 μM", "setting": "[1]; [7]", "value": 8.73, "unit": "×10⁻⁶ cm/s"},
      {"measurement": "Papp at 120 min, 100 μM", "setting": "[1]; [8]", "value": 16.2, "unit": "×10⁻⁶ cm/s"}
    ]},
    {"smiles": "CC(C)(Oc1ccc(Cl)cc1)C(=O)O", "note": "[Compound 2, Clofibric acid]", "values": [
      {"measurement": "DL50", "setting": "rat", "value": 940, "unit": "mg/kg"},
      {"measurement": "average lifetime (half-life) of clofibric acid", "setting": "[6]", "value": "420 to 480", "unit": "min"}
    ]},
    {"smiles": "COc1ccc(Cl)cc1C(=O)NCCc1ccc(S(=O)(=O)NC(=O)NC2CCCCC2)cc1", "note": "[glibenclamide, reference compound]", "values": [
      {"measurement": "reduction in glucose levels in the plasma", "setting": "plasma glucose levels", "value": 40, "unit": "%"}
    ]}
  ]
}
